The source of these data is US9415134B2, “Fosfomycin preparation, a method for producing the preparation, and a polymethylmethacrylate bone cement powder containing the preparation” (HERAEUS MEDICAL GMBH, priority 2014, dated 2016).

One data set has as its system ESBL. Conditions: cited from earlier work.
Data set [1] concerns gram-negative and gram-positive bacteria including methicillin-resistant staphylococci. Conditions: cited from earlier work.
For data set [2], the system named is vancomycin-resistant enterococci. The settings on record: cited from earlier work.
The subject of data set [3] is vancomycin-resistant Staphylococcus aureus (VRS). The settings on record: cited from earlier work.
Data set [4] addresses MurA (UDP-N-acetylglucosamine-enolpyruvyl-transferase) (Escherichia coli, UniProt P0A749). The settings on record: cited from earlier work.
Data set [5] can be described thus: Hygroscopic properties of fosfomycin salts. The settings on record: salt alone, atmospheric humidity. Format: physicochemical. The text has this:
Both salts attract atmospheric humidity and deliquesce in the process. Experiments have shown that these salts, in the dry state, can be integrated into cement powders of polymethylmethacrylate bone cements. However, said cement powders also attract atmospheric humidity during storage on air, upon which the antibiotic particles deliquesce. This can cause the cement powder to clump. For this reason, both of these fosfomycin salts are unsuitable or poorly suitable for industrial production of antibiotic polymethylmethacrylate bone cement powders.

Sequence of MurA (UDP-N-acetylglucosamine-enolpyruvyl-transferase) (P0A749 whole entry): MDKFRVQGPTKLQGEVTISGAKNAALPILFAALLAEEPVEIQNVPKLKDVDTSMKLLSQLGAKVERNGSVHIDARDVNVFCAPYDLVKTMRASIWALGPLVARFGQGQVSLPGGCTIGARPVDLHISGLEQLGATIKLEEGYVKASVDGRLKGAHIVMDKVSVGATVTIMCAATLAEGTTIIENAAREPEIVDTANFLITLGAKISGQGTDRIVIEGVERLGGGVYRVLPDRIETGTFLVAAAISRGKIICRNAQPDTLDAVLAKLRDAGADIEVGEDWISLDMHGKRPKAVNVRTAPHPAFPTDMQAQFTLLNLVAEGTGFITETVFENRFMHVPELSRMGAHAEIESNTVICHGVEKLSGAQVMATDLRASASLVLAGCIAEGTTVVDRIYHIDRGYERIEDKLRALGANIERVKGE

For `C[C@@H]1O[C@@H]1P(=O)(O)O` [Fosfomycin, (2R,3S)-3-methyloxiranphosphonic acid], the Antibacterial efficacy result (in the data set on ESBL; in data set [2]; in data set [3]) was “efficacious” throughout. Also, the Antibacterial activity result in data set [1] (gram-negative and gram-positive bacteria including methicillin-resistant staphylococci) was “active”. For the same compound, the “Mode of antibacterial action” value in data set [1] (in susceptible bacteria) is on record as “bactericidal”. The “Inhibition of MurA” value in data set [4] is on record as “inhibits”.
Consider `C[C@@H]1O[C@@H]1P(=O)([O-])[O-].O.[Ca+2]` [calcium salt of fosfomycin, monohydrate of the calcium salt of fosfomycin], for which the Hygroscopic properties entry in data set [5] is recorded as “extraordinarily hygroscopic”.
Turning to `C[C@@H]1O[C@@H]1P(=O)([O-])[O-].[Na+].[Na+]` [sodium salt, disodium salt of fosfomycin], in data set [5], the Hygroscopic properties entry was “extraordinarily hygroscopic”.
Turning to `C[C@@H]1O[C@@H]1P(=O)(O)O.NC(CO)(CO)CO` [trometamol-fosfomycin], in data set [5], the Hygroscopic properties result is recorded as “somewhat hygroscopic”.
